Results reported in ChEMBL document CHEMBL1909046, “DrugMatrix in vitro pharmacology data”.

What was measured:
[1] = target: T1, Polyunsaturated fatty acid lipoxygenase ALOX15 (Oryctolagus cuniculus, UniProt P12530); test: biochemical; type: tissue-based, Reticulocytes;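 note: inhibition of 15-lipoxygenase enzyme activity measured with linoleic acid as the substrate; in other assays of this panel Not Active means under 50% inhibition at 10 µM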
T1 sequence (P12530 whole entry): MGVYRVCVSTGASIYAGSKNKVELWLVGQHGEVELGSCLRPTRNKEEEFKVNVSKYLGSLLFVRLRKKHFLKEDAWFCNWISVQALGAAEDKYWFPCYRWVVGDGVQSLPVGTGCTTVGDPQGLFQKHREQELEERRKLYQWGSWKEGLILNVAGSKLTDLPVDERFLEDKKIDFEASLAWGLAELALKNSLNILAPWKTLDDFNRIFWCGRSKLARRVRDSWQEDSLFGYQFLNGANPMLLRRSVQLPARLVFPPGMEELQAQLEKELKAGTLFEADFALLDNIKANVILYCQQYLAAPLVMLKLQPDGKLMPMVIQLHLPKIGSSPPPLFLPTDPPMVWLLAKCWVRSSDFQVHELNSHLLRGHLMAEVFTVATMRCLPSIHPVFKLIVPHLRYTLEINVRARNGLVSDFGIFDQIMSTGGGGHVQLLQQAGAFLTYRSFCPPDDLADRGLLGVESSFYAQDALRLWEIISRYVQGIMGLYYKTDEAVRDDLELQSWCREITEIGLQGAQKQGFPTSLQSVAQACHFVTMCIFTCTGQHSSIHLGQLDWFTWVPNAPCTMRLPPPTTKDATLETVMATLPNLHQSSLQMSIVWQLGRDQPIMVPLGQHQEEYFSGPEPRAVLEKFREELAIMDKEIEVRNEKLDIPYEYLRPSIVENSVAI

Melanocortin receptor 5 = Melanocortin receptor 5 (Homo sapiens, UniProt P33032); type: cell membranes, HEK293, Membrane; conditions: hek293; note: in other assays of this panel Not Active means under 50% inhibition at 10 µM
Chain of Melanocortin receptor 5 (P33032 whole entry): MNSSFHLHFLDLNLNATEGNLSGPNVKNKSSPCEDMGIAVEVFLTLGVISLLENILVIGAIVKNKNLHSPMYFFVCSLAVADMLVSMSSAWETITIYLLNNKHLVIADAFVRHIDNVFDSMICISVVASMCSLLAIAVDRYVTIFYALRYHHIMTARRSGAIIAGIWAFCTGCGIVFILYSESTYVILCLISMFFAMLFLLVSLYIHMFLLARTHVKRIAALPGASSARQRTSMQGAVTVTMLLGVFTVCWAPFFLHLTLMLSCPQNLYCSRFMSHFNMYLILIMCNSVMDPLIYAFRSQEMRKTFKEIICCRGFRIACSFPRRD

Estrogen receptor beta = Estrogen receptor beta (Homo sapiens, UniProt Q92731); conditions: sf9; note: in other assays of this panel Not Active means under 50% inhibition at 10 µM
Chain of Estrogen receptor beta (Q92731 whole entry): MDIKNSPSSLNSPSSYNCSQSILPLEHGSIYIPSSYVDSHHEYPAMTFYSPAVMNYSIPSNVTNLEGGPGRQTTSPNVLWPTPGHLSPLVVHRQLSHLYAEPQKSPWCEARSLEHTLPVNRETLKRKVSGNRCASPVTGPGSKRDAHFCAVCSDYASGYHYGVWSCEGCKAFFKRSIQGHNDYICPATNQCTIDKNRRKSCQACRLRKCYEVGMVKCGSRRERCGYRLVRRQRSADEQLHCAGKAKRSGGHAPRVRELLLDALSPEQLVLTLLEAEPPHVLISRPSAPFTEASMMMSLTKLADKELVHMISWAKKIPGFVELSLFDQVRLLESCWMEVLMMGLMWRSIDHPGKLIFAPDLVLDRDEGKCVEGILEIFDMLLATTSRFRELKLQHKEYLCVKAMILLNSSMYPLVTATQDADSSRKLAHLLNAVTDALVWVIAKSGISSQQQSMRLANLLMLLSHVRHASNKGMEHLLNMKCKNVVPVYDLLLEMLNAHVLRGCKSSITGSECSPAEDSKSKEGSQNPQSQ

[2] = target: Matrix metalloproteinase-9 (Homo sapiens, UniProt P14780); test: biochemical; type: cell-based;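 note: inhibition of isolated MMP-9 enzyme activity toward a synthetic peptide substrate, from the DrugMatrix protease screening panel; in other assays of this panel Not Active means under 50% inhibition at 10 µM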
Chain of Matrix metalloproteinase-9 (P14780 whole entry): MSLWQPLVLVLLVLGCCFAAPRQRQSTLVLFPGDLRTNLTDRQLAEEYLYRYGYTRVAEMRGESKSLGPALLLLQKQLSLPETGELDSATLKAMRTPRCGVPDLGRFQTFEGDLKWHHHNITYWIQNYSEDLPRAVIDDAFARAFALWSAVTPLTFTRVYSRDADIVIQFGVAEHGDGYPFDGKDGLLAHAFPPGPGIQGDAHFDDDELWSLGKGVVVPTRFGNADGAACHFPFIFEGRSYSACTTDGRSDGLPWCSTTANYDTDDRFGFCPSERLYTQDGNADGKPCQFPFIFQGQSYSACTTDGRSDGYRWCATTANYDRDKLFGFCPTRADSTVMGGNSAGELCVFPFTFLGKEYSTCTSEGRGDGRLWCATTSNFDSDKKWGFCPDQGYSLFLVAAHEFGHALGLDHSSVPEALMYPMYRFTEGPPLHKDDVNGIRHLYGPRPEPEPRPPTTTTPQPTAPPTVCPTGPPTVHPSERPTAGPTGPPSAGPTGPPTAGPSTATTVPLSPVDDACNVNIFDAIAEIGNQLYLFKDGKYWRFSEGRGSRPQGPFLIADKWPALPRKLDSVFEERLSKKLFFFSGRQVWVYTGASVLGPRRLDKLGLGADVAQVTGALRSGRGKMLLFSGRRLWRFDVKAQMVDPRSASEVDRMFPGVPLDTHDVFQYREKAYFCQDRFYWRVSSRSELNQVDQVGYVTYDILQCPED

[3] = target: T2, Muscarinic acetylcholine receptor M4 (Homo sapiens, UniProt P08173); type: cell membranes, CHO-K1, Membrane; conditions: cho-k1; note: in other assays of this panel Not Active means under 50% inhibition at 10 µM
T2 sequence (P08173 whole entry): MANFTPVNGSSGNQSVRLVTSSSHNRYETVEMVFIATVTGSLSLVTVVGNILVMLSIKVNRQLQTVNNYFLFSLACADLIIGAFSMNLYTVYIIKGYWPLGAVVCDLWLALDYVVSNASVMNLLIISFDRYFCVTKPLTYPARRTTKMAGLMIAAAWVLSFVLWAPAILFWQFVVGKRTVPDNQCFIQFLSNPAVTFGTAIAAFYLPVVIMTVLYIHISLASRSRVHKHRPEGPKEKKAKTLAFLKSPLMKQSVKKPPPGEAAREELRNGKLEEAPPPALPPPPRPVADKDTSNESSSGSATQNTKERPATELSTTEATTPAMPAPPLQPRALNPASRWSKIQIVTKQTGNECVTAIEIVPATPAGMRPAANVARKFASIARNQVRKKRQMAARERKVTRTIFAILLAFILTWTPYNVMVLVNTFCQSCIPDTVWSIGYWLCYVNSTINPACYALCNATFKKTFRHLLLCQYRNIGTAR

[4] = target: Sigma non-opioid intracellular receptor 1 (Homo sapiens, UniProt Q99720); test: DRUGMATRIX: Sigma1 radioligand binding (ligand: [3H] Haloperidol); type: cell membranes, Jurkat, Membrane; conditions: Not Active = under 50% inhibition at 10 µM
Chain of Sigma non-opioid intracellular receptor 1 (Q99720 whole entry): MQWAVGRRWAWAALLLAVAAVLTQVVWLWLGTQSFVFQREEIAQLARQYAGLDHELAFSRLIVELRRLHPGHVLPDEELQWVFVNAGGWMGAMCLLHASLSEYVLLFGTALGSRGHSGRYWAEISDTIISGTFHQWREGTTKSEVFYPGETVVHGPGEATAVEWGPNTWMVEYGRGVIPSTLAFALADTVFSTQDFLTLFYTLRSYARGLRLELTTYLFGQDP

[5] = target: T3, Type-2 angiotensin II receptor (Homo sapiens, UniProt P50052); type: cell-based; conditions: cho-k1; note: in other assays of this panel Not Active means under 50% inhibition at 10 µM
T3 sequence (P50052 whole entry): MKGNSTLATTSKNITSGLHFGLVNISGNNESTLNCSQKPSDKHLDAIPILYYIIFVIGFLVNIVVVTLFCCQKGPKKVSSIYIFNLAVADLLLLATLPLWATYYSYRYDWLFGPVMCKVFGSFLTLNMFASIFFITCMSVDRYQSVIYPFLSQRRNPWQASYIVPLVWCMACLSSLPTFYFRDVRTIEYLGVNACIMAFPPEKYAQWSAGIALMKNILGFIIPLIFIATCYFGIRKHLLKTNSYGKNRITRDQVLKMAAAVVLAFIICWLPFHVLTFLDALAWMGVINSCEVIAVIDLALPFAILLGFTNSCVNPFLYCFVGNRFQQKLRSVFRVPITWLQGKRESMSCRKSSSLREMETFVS

For `O=P1(N(CCCl)CCCl)NCCCO1` (configuration not stated) [CYCLOPHOSPHAMIDE ANHYDROUS], the IC50 ([1]; reticulocytes) was “Not Active”, the IC50 (Melanocortin receptor 5) was “Not Active” and the IC50 (Estrogen receptor beta) was “Not Active”. The IC50 [2] was “Not Active”, the IC50 [3] was “Not Active” and the IC50 ([4]; jurkat) was “Not Active”. For the same molecule, the IC50 [5] was “Not Active”.
In the case of `CC(=O)O[C@]1(C(C)=O)CC[C@H]2[C@@H]3C=C(Cl)C4=CC(=O)[C@@H]5C[C@@H]5[C@]4(C)[C@H]3CC[C@@]21C` [CYPROTERONE ACETATE], the IC50 ([1]; reticulocytes) is reported as “Not Active”, the IC50 (Melanocortin receptor 5) is reported as “Not Active” and the IC50 (Estrogen receptor beta) is reported as “Not Active”. For the same molecule, the IC50 [2] was “Not Active”, the IC50 [3] was “Not Active” and the IC50 ([4]; jurkat) was “Not Active”. For the same molecule, the IC50 [5] was “Not Active”.
For `Nc1nc(N)nc(NC2CC2)n1` [CYROMAZINE], the IC50 ([1]; reticulocytes) was “Not Active”, the IC50 (Melanocortin receptor 5) was “Not Active” and the IC50 (Estrogen receptor beta) was “Not Active”. The IC50 [2] was “Not Active”, the IC50 [3] was “Not Active” and the IC50 ([4]; jurkat) was “Not Active”. For the same molecule, the IC50 [5] was “Not Active”.
For `C#C[C@]1(O)CC[C@H]2[C@@H]3CCC4=Cc5oncc5C[C@]4(C)[C@H]3CC[C@@]21C` [DANAZOL], the IC50 ([1]; reticulocytes) was “Not Active”, the IC50 (Melanocortin receptor 5) was “Not Active” and the IC50 (Estrogen receptor beta) was “Not Active”. The IC50 [2] was “Not Active”, the IC50 [3] was “Not Active” and the IC50 ([4]; jurkat) was “Not Active”. For the same molecule, the IC50 [5] was “Not Active”.
In the case of `C[C@H](C(=O)O)c1cccc(C(=O)c2ccccc2)c1` [DEXKETOPROFEN], the IC50 ([1]; reticulocytes) is reported as “Not Active”, the IC50 (Melanocortin receptor 5) is reported as “Not Active” and the IC50 (Estrogen receptor beta) is reported as “Not Active”. For the same molecule, the IC50 [2] was “Not Active”, the IC50 [3] was “Not Active” and the IC50 ([4]; jurkat) was “Not Active”. For the same molecule, the IC50 [5] was “Not Active”.
With `CN1C[C@H](C(=O)N[C@]2(C)O[C@@]3(O)[C@@H]4CCCN4C(=O)[C@H](Cc4ccccc4)N3C2=O)C[C@@H]2c3cccc4[nH]cc(c34)C[C@H]21` [DIHYDROERGOTAMINE] the IC50 ([1]; reticulocytes) was “Not Active”, the IC50 (Melanocortin receptor 5) was “Not Active” and the IC50 (Estrogen receptor beta) was “Not Active”. The IC50 [2] was “Not Active”, the IC50 [3] was “Not Active” and the IC50 ([4]; jurkat) was “Not Active”. For the same molecule, the IC50 [5] was “Not Active”.
In the case of `Cc1c(N(C)CS(=O)(=O)[O-])c(=O)n(-c2ccccc2)n1C.[Na+]` [DIPYRONE SODIUM], the IC50 ([1]; reticulocytes) is reported as “Not Active”, the IC50 (Melanocortin receptor 5) is reported as “Not Active” and the IC50 (Estrogen receptor beta) is reported as “Not Active”. For the same molecule, the IC50 [2] was “Not Active”, the IC50 [3] was “Not Active” and the IC50 ([4]; jurkat) was “Not Active”. The IC50 [5] was “Not Active”.
`CC(CCc1ccc(O)cc1)NCCc1ccc(O)c(O)c1` (configuration not stated) [DOBUTAMINE] was tested, and the IC50 ([1]; read-out: IC50) was 599 nM, the IC50 (Melanocortin receptor 5) was “Not Active” and the IC50 (Estrogen receptor beta) was “Not Active”. For the same molecule, the IC50 [2] was “Not Active”, the IC50 [3] was “Not Active” and the IC50 ([4]; read-out: IC50) was 2520 nM. For the same molecule, the Ki ([4]; read-out: Ki) was 1060 nM and the IC50 [5] was “Not Active”.
`CCn1cc(C(=O)O)c(=O)c2cc(F)c(N3CCNCC3)nc21` [ENOXACIN] was tested, and the IC50 ([1]; reticulocytes) was “Not Active”, the IC50 (Melanocortin receptor 5) was “Not Active” and the IC50 (Estrogen receptor beta) was “Not Active”. The IC50 [2] was “Not Active”, the IC50 [3] was “Not Active” and the IC50 ([4]; jurkat) was “Not Active”. The IC50 [5] was “Not Active”.
With `CCC(=O)O[C@H]1[C@H](O[C@@H]2[C@@H](C)[C@H](O[C@H]3C[C@@](C)(OC)[C@@H](O)[C@H](C)O3)[C@@H](C)C(=O)O[C@H](CC)[C@@](C)(O)[C@H](O)[C@@H](C)C(=O)[C@H](C)C[C@@]2(C)O)O[C@H](C)C[C@@H]1N(C)C` [ERYTHROMYCIN PROPIONATE] the IC50 ([1]; reticulocytes) was “Not Active”, the IC50 (Melanocortin receptor 5) was “Not Active” and the IC50 (Estrogen receptor beta) was “Not Active”. For the same molecule, the IC50 [2] was “Not Active”, the IC50 [3] was “Not Active” and the IC50 ([4]; jurkat) was “Not Active”. For the same molecule, the IC50 [5] was “Not Active”.
`C#C[C@]1(O)CC[C@H]2[C@@H]3CCc4cc(O)ccc4[C@H]3CC[C@@]21C` [ETHINYL ESTRADIOL] was tested, and the IC50 ([1]; read-out: IC50) was 5680 nM, the IC50 (Melanocortin receptor 5) was “Not Active” and the IC50 (Estrogen receptor beta) was “Not Active”. The IC50 [2] was “Not Active”, the IC50 [3] was “Not Active” and the IC50 ([4]; jurkat) was “Not Active”. For the same molecule, the IC50 [5] was “Not Active”.
In the case of `CC(=O)OCC(CCn1cnc2cnc(N)nc21)COC(C)=O` [FAMCICLOVIR], the IC50 ([1]; reticulocytes) is reported as “Not Active”, the IC50 (Melanocortin receptor 5) is reported as “Not Active” and the IC50 (Estrogen receptor beta) is reported as “Not Active”. The IC50 [2] was “Not Active”, the IC50 [3] was “Not Active” and the IC50 ([4]; jurkat) was “Not Active”. The IC50 [5] was “Not Active”.
With `CCOC(=O)C1=C(C)NC(C)=C(C(=O)OC)C1c1cccc(Cl)c1Cl` (configuration not stated) [FELODIPINE] the IC50 ([1]; reticulocytes) was “Not Active”, the IC50 (Melanocortin receptor 5) was “Not Active” and the IC50 (Estrogen receptor beta) was “Not Active”. For the same molecule, the IC50 [2] was “Not Active”, the IC50 [3] was “Not Active” and the IC50 ([4]; jurkat) was “Not Active”. For the same molecule, the IC50 [5] was “Not Active”.
